The results in this text go back to ChEMBL document CHEMBL2010724, “Oroxylin A analogs exhibited strong inhibitory activities against iNOS-mediated nitric oxide (NO) production” (Bioorg Med Chem Lett, 2012).

The structures appear in SMILES notation.

Broadly, the IC50 is the concentration needed to halve the response being measured. A higher IC50 goes with weaker potency in that assay. The inhibition is the change of the read-out against control, counted positive when it falls.

Test [1] addresses T1, Nitric oxide synthase, inducible (Mus musculus, UniProt P29477).
T1 sequence (P29477 whole entry): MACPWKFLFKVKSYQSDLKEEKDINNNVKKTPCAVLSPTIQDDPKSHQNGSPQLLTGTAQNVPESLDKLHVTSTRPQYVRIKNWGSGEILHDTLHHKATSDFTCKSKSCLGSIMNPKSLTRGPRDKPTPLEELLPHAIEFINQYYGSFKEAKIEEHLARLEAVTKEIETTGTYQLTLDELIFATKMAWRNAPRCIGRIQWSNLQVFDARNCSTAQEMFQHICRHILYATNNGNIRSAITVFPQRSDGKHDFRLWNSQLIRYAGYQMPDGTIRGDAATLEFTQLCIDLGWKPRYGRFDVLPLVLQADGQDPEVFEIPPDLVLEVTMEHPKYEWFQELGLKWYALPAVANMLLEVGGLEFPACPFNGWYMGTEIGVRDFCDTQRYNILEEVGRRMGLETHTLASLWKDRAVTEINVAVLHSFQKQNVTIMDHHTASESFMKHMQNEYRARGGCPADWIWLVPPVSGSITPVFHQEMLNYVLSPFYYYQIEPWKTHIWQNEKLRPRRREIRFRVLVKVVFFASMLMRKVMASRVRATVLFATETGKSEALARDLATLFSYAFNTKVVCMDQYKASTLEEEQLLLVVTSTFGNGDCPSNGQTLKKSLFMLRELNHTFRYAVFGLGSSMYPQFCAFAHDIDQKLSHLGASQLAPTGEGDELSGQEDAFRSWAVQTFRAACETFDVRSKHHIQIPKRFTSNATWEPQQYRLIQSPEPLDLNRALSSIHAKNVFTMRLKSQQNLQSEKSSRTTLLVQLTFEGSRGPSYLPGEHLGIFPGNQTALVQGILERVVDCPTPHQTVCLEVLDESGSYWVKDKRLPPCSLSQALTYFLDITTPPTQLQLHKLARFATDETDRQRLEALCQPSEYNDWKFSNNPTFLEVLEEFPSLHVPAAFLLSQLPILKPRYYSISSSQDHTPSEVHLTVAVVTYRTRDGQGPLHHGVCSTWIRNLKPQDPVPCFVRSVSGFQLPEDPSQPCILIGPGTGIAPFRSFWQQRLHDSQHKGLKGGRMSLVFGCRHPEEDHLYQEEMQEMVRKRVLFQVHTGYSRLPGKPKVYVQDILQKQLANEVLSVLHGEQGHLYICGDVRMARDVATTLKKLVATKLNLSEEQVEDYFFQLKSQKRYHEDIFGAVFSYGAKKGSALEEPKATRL
As to the kind of experiment: Inhibition of iNOS-induced NO production in LPS-stimulated mouse BV2 cells after 24 hrs. The class given is cell-based. As to conditions: bv-2.

Test [2] concerns the target T2, Nitric oxide synthase, inducible (Mus musculus) (UniProt P29477).
T2 sequence (whole entry): T1 sequence (P29477 whole entry)
Briefly: Inhibition of iNOS-induced NO production in LPS-stimulated mouse BV2 cells at 10 uM after 24 hrs. As to conditions: BV-2. The format is cell-based.

For the compound `COc1c(O)cc2oc(-c3ccc([N+](=O)[O-])cc3)cc(=O)c2c1O`, it took 4.73 µM to reach half-maximal inhibition in test [1] (IC50). This compound also showed an inhibition in test [2] of 45.7%.

Consider `COc1c(O)cc2oc(-c3cccc(F)c3)cc(=O)c2c1O`, for which the IC50 in test [1] is 11.4 µM. Moreover, the inhibition in test [2] was found to be 39.9%.

As to `COc1c(O)cc2oc(-c3ccccc3)cc(=O)c2c1O`, in test [2], the inhibition came to 26%.

The compound `COc1c(O)cc2oc(-c3ccc(F)cc3F)cc(=O)c2c1O` yielded an inhibition in test [2] of 10.6%.

In the case of `COc1c(O)cc2oc(-c3ccccc3F)cc(=O)c2c1O`, in test [2], the inhibition was 14.2%.

For `COc1cc(-c2cc(=O)c3c(O)c(OC)c(O)cc3o2)ccc1O`, the inhibition in test [2] turned out to be 8.2%.

For `COc1c(O)cc(O)c2c(=O)cc(-c3ccccc3)oc12` [WOGONIN], half-maximal inhibition in test [1] (IC50) required 7.8 µM. This compound yielded an inhibition in test [2] of 40%.

In turn, `COc1c(O)cc2oc(-c3cccc(Br)c3)cc(=O)c2c1O` gave an IC50 in test [1] of 10.8 µM. For the same compound, the inhibition in test [2] is 45.2%.

Turning to `COc1c(O)cc2oc(-c3ccc(F)cc3)cc(=O)c2c1O`, in test [1], half-maximal inhibition (IC50) required 8.58 µM. In test [2], this compound came in with an inhibition of 40.8%.

In test [2], `COc1c(O)cc2oc(-c3ccc(Cl)c(Cl)c3)cc(=O)c2c1O` registered an inhibition of 13.1%.
